This note sets out measurements from PubChem BioAssay AID449762 (Southern Research Specialized Biocontainment Screening …, 2010).

As usually defined, the IC50 is the concentration needed to halve the response being measured. As usually defined, the IC90 is the concentration needed for an effect of 90%. A low value points to an effect from little substance.

Records with an inconclusive call do not appear.

The assay has as its system M. tuberculosis H37Rv growth inhibition, 7H9 media. As to the kind of experiment: M. tuberculosis growth inhibition, HTS (AID 449762).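 On all read-outs here: bacterial growth assessed after seven days of incubation.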 As to conditions: for IC90: measured here: IC90 growth inhibition.

Regarding `Cn1cnnc1SCc1ccc(C(=O)N=Nc2c(O)n(Cc3ccc(Cl)cc3)c3ccccc23)cc1`, the IC50 is 2.97 µM and the IC90 was 3.4 µM.
For `O=c1c2c(-c3ccccc3)csc2ncn1/N=C/c1ccc(O)c([N+](=O)[O-])c1` the same measures were 13.5 µM and 52.9 µM.
For `CCOc1ccc(NC(=S)Nc2cc(-c3ccccc3)[nH]n2)cc1` the same measures were 92.6 µM and above 100 µM.
On the same counts, the results for `CC1C/C(=C\c2cccnc2)C(=O)/C(=C/c2cccnc2)C1` (centres undefined) are 3.38 µM and 8.85 µM.
Turning to `CC(C)(C)OC(=O)NNC(=S)NC1CCCCC1`, the IC50 is 21.2 µM and the IC90 amounted to 23.8 µM.
As for `CCOC(=O)COc1ccc(/C=C2\NC(=S)N(CC)C2=O)cc1`, the IC50 is 1.17 µM and the IC90 turned out to be 8.47 µM.
For `CCOC(=O)N1CCC(N2Cc3cccc(C(=O)Nc4ccc(N(CC)CC)cc4C)c3C2=O)CC1` the same measures were 45.1 µM and 50.5 µM.
Turning to `C=C1C(=O)[C@@]23[C@H](O)C[C@@H]4C(C)(C)CC[C@H](O)[C@@]4(C)[C@@H]2CC[C@@H]1[C@H]3O`, the IC50 is 3.04 µM and the 90% effect concentration (IC90) came to 4.05 µM.
For `CCOC(=O)N1CCN(Cc2cc(Cl)c3cccnc3c2O)CC1` the same measures were 11 µM and 21 µM.
For `Cn1/c(=N/NC(=O)c2cccc(OC(F)F)c2)sc2ccccc21` the same measures were 2 µM and 22.7 µM.
On the same counts, the results for `CCOc1ccc(N2CC(=O)Nc3ccccc3NCC2=O)cc1` are 52.7 µM and 78.2 µM.
`Cc1ccc(C(=O)N/C(=C/c2ccc(-c3cc(C(F)(F)F)ccc3Cl)o2)C(=O)NCc2cccnc2)cc1`: the IC50 is 37.8 µM and the IC90 was above 100 µM.
On the same counts, the results for `CCOC(=O)CSc1nc(C)c(C(=O)OCC)s1` are 3.62 µM and 9.29 µM.
`CC(C)(C)c1nc2sc3c(c2c(=O)o1)CCCC3` showed an IC90 above 100 µM.
For `O=C(OCC#CCSc1nnc(-c2cccc3ccccc23)o1)c1cccs1`, the half-inhibitory concentration (IC50) is 35.5 µM and the IC90 was determined as 63.9 µM.
Consider `CC(C)(C)c1csc(NC(=O)c2c(F)c(F)c(F)c(F)c2F)n1`, for which the 50% inhibitory concentration (IC50) is 17.7 µM and the concentration for an effect of 90% (IC90) was determined as 25.2 µM.
For `O=C(CSc1nnnn1C1CCCCC1)Nc1nc2c(s1)CCCC2` the same measures were 30.7 µM and 59.3 µM.
As to `O=C(COC(=O)c1cccs1)c1ccccc1`, the IC50 was 45 µM and the 90% effect concentration (IC90) is above 100 µM.
For `COc1cc(/C=C/C(=O)c2c(O)n(CCc3ccccc3)c(=O)[nH]c2=O)ccc1O` the same measures were 4.59 µM and 11.5 µM.
On the same counts, the results for `Cc1ccc2c(c1)c(/C=C/c1cc[n+](C)cc1)c(C)n2C` are 5.13 µM and 6.8 µM.
Turning to `O=C(CCN1C(=O)/C(=C/c2ccccc2)SC1=S)Nc1ccccn1`, the 50% inhibitory concentration (IC50) is 89.9 µM and the IC90 was above 100 µM.
For the compound `Cn1cccc1/C=C1/C(=O)NC(=S)N(Cc2ccc(F)cc2)C1=O`, the concentration for half-maximal inhibition (IC50) was 24.2 µM and the IC90 is above 100 µM.
On the same counts, the results for `COc1ccccc1C1=NOC(COC(=O)c2ccc([N+](=O)[O-])cc2)C1` (centres undefined) are 34.4 µM and above 100 µM.
For `O=C(Nc1cc(C(F)(F)F)ccc1Cl)C(Sc1cccc[n+]1[O-])c1ccccc1` (centres undefined) the same measures were 39.2 µM and 47.9 µM.
For `O=C(CN1CCN(C(=O)COc2cccc(F)c2)CC1)Nc1ccc(Cl)c(C(F)(F)F)c1` the same measures were 49 µM and 55.4 µM.
With `Cc1ccc(N2C(=O)C(F)(F)C2c2ccccc2)cc1` (centres undefined), the IC50 is 2.79 µM and the IC90 came out at 5.46 µM.
On the same counts, the results for `C=CCN(CC(=O)c1sc(C(=O)OCC)nc1C)c1cccc(Br)c1` are 19.4 µM and 28.8 µM.
`CCCOc1cccc(C(=O)NC(=S)Nc2ccc(N3CCN(C)CC3)cc2)c1` gave an IC90 above 100 µM.
On to `CCCCOC(=O)CCN1C(=O)/C(=C2\SC(=S)N(CCC(=O)OCCCC)C2=O)SC1=S`, for which the IC50 is 2.98 µM and the IC90 worked out at 6.96 µM.
For `CC(Oc1ccc2ccccc2c1)C(=O)NNC(=S)NC(=O)c1ccco1` (centres undefined) the same measures were 6.06 µM and 45 µM.
On the same counts, the results for `COc1ccc(-c2oc3cccnc3c2/C=C/c2ccc(OC)c(OC)c2)cc1` are 51.3 µM and above 100 µM.
As to `CCc1ccc(C2c3[nH]c4ccccc4c3CCN2C(=O)c2ccc(=O)n(C)n2)cc1` (centres undefined), the IC50 is 49.6 µM and the IC90 amounted to 74.3 µM.
On the same counts, the results for `COC(=O)c1ccc(COC(=O)CCc2nc(-c3ccccc3)c(-c3ccccc3)o2)cc1` are 21.5 µM and above 100 µM.
`Cc1ccc(S(=O)(=O)CNC(=S)c2ccc3ccccc3c2)cc1` returned an IC90 above 100 µM.
For the compound `CC(C(Sc1ccccc1N)c1ccccc1)[N+](=O)[O-]` (centres undefined), the IC50 was 19.4 µM and the concentration for an effect of 90% (IC90) was above 100 µM.
On the same counts, the results for `CN(CCCNC(=O)c1cc2c(Cl)nc3ccccc3c2s1)Cc1ccccc1` are 41.1 µM and 61 µM.
For `[O-][n+]1c2ccccc2c2n1CCN1CCOC21c1ccc(Cl)cc1` (centres undefined) the same measures were 26.1 µM and 68 µM.
On the same counts, the results for `CCOc1ccc2nc(N/C(N)=N/C(=S)Nc3cccc(C)c3)nc(C)c2c1` are 5.4 µM and above 100 µM.
Consider `Cc1ccc(S(=O)(=O)/N=C(\CCl)N2CCOCC2)cc1`, for which the 50% inhibitory concentration (IC50) is 6.44 µM and the IC90 came out at 14.9 µM.
For `CCOc1ccc(NCc2cccn2-c2nnc(N3CCC(C(=O)NCCCN4C(C)CCCC4C)CC3)s2)cc1` (centres undefined) the same measures were 71.9 µM and 90.9 µM.
As to `CCC(=O)N1c2ccc(S(=O)(=O)CCC(=O)N3CCn4c3nc3ccccc34)cc2CC1C` (centres undefined), the IC50 is 9.28 µM and the IC90 worked out at 19.5 µM.
For `CCC1=C(OC(=O)N(CC)CC)N2C(=O)OC(=NCCc3c[nH]c4ccccc34)[C@]2(Cc2ccccc2)[C@H]2C1=CC[C@H]1C(=O)NC(=O)[C@H]12` the same measures were 30.7 µM and 44.8 µM.
For `Cc1occc1-c1nnc(SCC(=O)NCCc2ccccc2)o1` the same measures were 9.83 µM and 20 µM.
On the same counts, the results for `CCCCCCOC(=O)C(C#N)c1nc2ccccc2nc1N1CCN(CC)CC1` (centres undefined) are 20.1 µM and 29.7 µM.
In the case of `COc1cccc(COC(=O)c2ccc3c(=O)n4c(nc3c2)CCC4)c1OC`, the IC50 is 21.1 µM and the 90% effect concentration (IC90) is 50.6 µM.
In the case of `Cc1nn(-c2ccccc2)c(N)c1N=Nc1ccc(Cl)cc1`, the IC50 was 27.3 µM and the IC90 was 41.5 µM.
On the same counts, the results for `COc1ccc(C[C@H]2CN3C(=NC[C@H]3Cc3ccccc3)N2CCNC(=O)CCC2CCCCC2)cc1` are 16.8 µM and 21.3 µM.
For `Cc1cc(-c2cc(-c3ccccc3)on2)nc(NC2CCCC2)n1` the same measures were 45.8 µM and 53.9 µM.
For `CN(C)c1ccnc2c[cH-]cc12.[Fe].c1ccc(-[c-]2[c-](-c3ccccc3)[c-](-c3ccccc3)[c-](-c3ccccc3)[c-]2-c2ccccc2)cc1` (centres undefined) the same measures were 13.7 µM and 17.4 µM.
In the case of `CCOC(=O)N1CCC(n2c(SCC(=O)OCc3ccccc3)nc3ccsc3c2=O)CC1`, the IC50 was 27.1 µM and the IC90 was above 100 µM.
For `NC(=O)CSc1nnc(COc2ccc3ccccc3c2)o1` the same measures were 1.75 µM and above 100 µM.
For `Cc1ccc(C)c(C2C(=O)c3ccccc3C2=O)c1` the same measures were 3.94 µM and 16.3 µM.
On the same counts, the results for `O=C(NNC1CC(=O)N(c2ccc(Br)cc2)C1=O)c1ccccn1` (centres undefined) are 5.9 µM and 13.6 µM.
`CCOC(=O)Cn1nc(-c2ccccc2)nc1-c1ccccc1`: the IC50 is 5.84 µM and the IC90 turned out to be 22.7 µM.
On to `Cc1ccc(C(=O)O/N=C(\N)c2ccc(Br)cc2)cc1C`, for which the IC50 was 98.9 µM and the IC90 was above 100 µM.
For `CCc1ccc2c(c1)/C(=C/C(=O)c1cccs1)C(=O)N2` the same measures were 1.06 µM and 3.19 µM.
For `C/C(Cl)=C\COc1cc(C)nc2c(Br)cccc12`, the IC50 is 19.7 µM and the IC90 came out at 25.1 µM.
For `O=C(NC(C(=O)N/N=C/c1cccc2ccccc12)c1n[nH]c(=O)c2ccccc12)c1ccccc1` (centres undefined) the same measures were 53.2 µM and above 100 µM.
For `CSc1ncc(C(=O)Nc2ccc(Br)cn2)c(C)n1` the same measures were 0.93 µM and 3.9 µM.
For `Cc1cccc(OCC(=O)NNC(=O)c2cc3ccccc3oc2=O)c1` the same measures were 25.4 µM and above 100 µM.
For the compound `O=C(NC(=S)N1CCc2ccccc21)c1ccc(Br)o1`, the IC50 is 5.63 µM and the IC90 was determined as 9.62 µM.
On the same counts, the results for `COc1cccc(Nc2ccc([N+](=O)[O-])c3nonc23)c1` are 9.43 µM and 13.6 µM.
On the same counts, the results for `CCOC(=O)c1[nH]c2ccc(F)cc2c1NC(=O)CN1CCN(C/C=C/c2ccccc2)CC1` are 19.1 µM and 27.1 µM.
For `Oc1cccc(-c2nc3ccc4ccccc4c3c3c2CCC3)c1`, the half-maximal inhibitory concentration (IC50) was 7.31 µM and the IC90 amounted to 26.8 µM.
For `Cc1ccc(-c2cc(-c3ccccc3C)[nH]n2)c(O)c1` the same measures were 22.2 µM and above 100 µM.
Take `Cc1nn(-c2ccccc2)c(Cl)c1C(=O)Nc1nnc(C2CCCCC2)s1`: the IC50 was 17.3 µM and the IC90 is above 50 µM.
On to `CCOC(=O)N1CCN=C1SCc1ccc(C(F)(F)F)cc1`, for which the IC90 was above 100 µM.
Regarding `N#C/C(N=Nc1ccccc1O)=N\Nc1ccccc1O`, the IC50 was below 0.2 µM and the IC90 was 1.65 µM.
Consider `Cc1cc(C)cc(NC(=O)c2ccc(Cn3nc(C)c(Cl)c3C)o2)c1`, for which the IC50 was 30.8 µM and the IC90 worked out at 41.9 µM.
Consider `O=C(Nc1nc2ccc(F)cc2s1)C1CCN(S(=O)(=O)c2cc([N+](=O)[O-])ccc2Cl)CC1`, for which the IC50 is 10.9 µM and the IC90 was determined as 16 µM.
For `COc1ccccc1C(=O)NC(=S)/C=C1/N(C)c2ccccc2C1(C)C` the same measures were 34.4 µM and 43.9 µM.
In turn, `C/C(=N\NC(=O)c1cc2c(s1)CCC(C)C2)c1ccncc1` (centres undefined) displayed an IC90 above 100 µM.
